Results as given in paper PMC11271247 (SLAS discovery : advancing life sciences R & D, 2019).

How the values were obtained:
[1] = test system: HEY/NIH microtissues (HEY-GFP ovarian cancer cells + NIH3T3 fibroblasts); format: cell-based, human; conditions: read-out: IC50 ATP; HEY/NIH spheroids, ATP content at treatment day 7
[2] = test system: PANC/NIH microtissues (PANC-1 pancreatic cancer cells + NIH3T3 fibroblasts); format: cell-based, human; conditions: read-out: IC50 ATP; PANC/NIH spheroids, ATP content at treatment day 7
[3] = test system: SKOV/NIH microtissues (SKOV-3 ovarian cancer cells + NIH3T3 fibroblasts); format: cell-based, human; conditions: read-out: IC50 ATP; SKOV/NIH spheroids, ATP content at treatment day 7
HEY/NIH3T3 microtissues = test: Microtissue size over time, HEY/NIH microtissues; format: cell-based, human; conditions: HEY/NIH3T3, % maximal response at 20 μM
[4] = test system: NIH3T3 fibroblasts within SKOV/NIH microtissues
[5] = test system: NIH3T3 fibroblasts within HEY/NIH microtissues; conditions: day 3
[6] = test system: NIH3T3 fibroblasts within PANC/NIH microtissues; format: cell-based, mouse; conditions: PANC1/NIH, day 3 (acute toxicity)

| SMILES | IC50 [1] [nM] | IC50 [2] [nM] | IC50 [3] [nM] | further results |
| --- | --- | --- | --- | --- |
| CSc1cccc(Nc2ncc3cc(-c4c(Cl)cccc4Cl)c(=O)n(C)c3n2)c1 [PD-173955] | 479 | – | – | – |
| O=C(O)C1CCCN(CCC=C(c2ccccc2)c2ccccc2)C1 (centres unmarked) [SK&F-89976A] | 15300 | – | – | – |
| CN(C)CCCN=c1c2ccccc2n(C)c2[nH]c(=O)n(C)c(=O)c12 [HLI-373989] | 3760 | – | – | – |
| Cc1ccc(-c2ncn(-c3ccc(Nc4nccc(-c5cccc(N6CCOCC6)c5)n4)cc3)n2)cn1 [SR-3306] | 58 | 22 | 13 | – |
| Cn1c(=O)c(F)c(Nc2ccc(I)cc2F)c2c(=O)n(C[C@@H](O)CO)cnc21 [TAK-733] | – | – | – | effect on tumor size early in the treatment (HEY/NIH3T3 microtissues): reduce tumor size |
| CC1=C(C(=O)Nc2cc3cn[nH]c3cc2F)C(c2ccc(Cl)cc2F)N=C(c2ccnc(Cl)c2)N1 (centres unmarked) [GSK-25] | 6100 | 9380 | 4830 | – |
| O=C1C(Cl)=C(NCCN2CCOCC2)C(=O)c2ncccc21 [DA-3003-1] | 7360 | – | – | – |
| c1cncc(CN2CCC(n3ncc4c(N5CCOCC5)nc(-c5ccc6[nH]ccc6c5)nc43)CC2)c1 [WAY-600] | 1680 | 7380 | 507 | effect on tumor size early in the treatment (HEY/NIH3T3 microtissues): reduce tumor size |
| C/C=C1\NC(=O)[C@H]2CSSCC/C=C/[C@H](CC(=O)N[C@H](C(C)C)C(=O)N2)OC(=O)[C@H](C(C)C)NC1=O [Romidepsin] | – | – | – | viability of the stromal cells [4]: significantly lowered the viability of the stromal cells |
| CC(C)C[C@H](NC(=O)[C@H](CCc1ccccc1)NC(=O)CN1CCOCC1)C(=O)N[C@@H](Cc1ccccc1)C(=O)N[C@@H](CC(C)C)C(=O)[C@@]1(C)CO1 [Carfilzomib] | – | – | – | therapeutic window, ratio of adverse to therapeutic effect [5]: 578 fold |
| Nc1ccc(-c2ccc3ncc4ccc(=O)n(-c5cccc(C(F)(F)F)c5)c4c3c2)cn1 [Torin-2] | 27 | 1 | 2 | therapeutic window, ratio of adverse to therapeutic effect [6]: 5,524 fold |
| C=CC(=O)Nc1cc2c(Nc3ccc(F)c(Cl)c3)ncnc2cc1C#CC(C)(C)N1CCN(C)CC1 [AV-412] | 1290 | 2440 | 80 | – |
| Cc1ccc(/C=N/NC(=O)c2ccccc2Oc2ccccc2)o1 [PNU-74654] | – | – | 2840 | – |
| COC(=O)[C@]12CCC(C)(C)C[C@H]1[C@H]1C(=O)C=C3[C@@]4(C)C=C(C#N)C(=O)C(C)(C)[C@@H]4CC[C@@]3(C)[C@]1(C)CC2 [Bardoxolone methyl] | – | 1340 | – | – |
| Cc1nc(Nc2ncc(C(=O)Nc3c(C)cccc3Cl)s2)cc(N2CCN(CCO)CC2)n1 [Dasatinib] | – | – | – | effect on tumor size early in the treatment (HEY/NIH3T3 microtissues): reduce tumor size |
| CNC(=O)[C@H](Cc1c[nH]c2ccccc12)NC(=O)[C@@H](CC(=O)NO)CC(C)C [GM-6001] | – | 9610 | 3860 | – |
